Results reported in US5690956A, “Hair care perming agent” (priority 1995, dated 1997).

Legend:
disulfide bonds in hair [1] = settings: laboratory setting, prior practice; cited from earlier work
[2] = test system: hair, especially the cuticle; settings: elevated pH, usually pH 9-12; prior art; cited from earlier work
disulfide bonds in hair [3] = test: Reduction (cleavage) of disulfide bonds in hair protein; format: biochemical, human
Source text: The extent of cleavage of disulfide bonds using thioglycollate depends on the concentration of the reducing agent and on the amount of mechanical stress applied to the hair shaft. In spite of the conditions used in performing a reduction of the disulfide bonds, in prior practice in a laboratory setting, no more than 65-70% of the protein cystine bonds in hair were disrupted. In the actual practice of hair perming, the reduction level is even lower, ranging between 19% and 43%. When using thioglycollate as a reducing agent, the optimal perming condition occurs using ambient temperatures and a 5% (w/v) solution of thioglycollate.
2) The reducing reactions are conducted under conditions of ambient or slightly elevated temperature in a mildly acidic buffer media ranging in a pH from 2.0-5.6 and with a TCEP concentration range of 5-10% w/v. The reaction occurs over a period of about 15 minutes.

human hosts = test: Human safety of the reducing agent
Water solubility of TCEP = format: physicochemical
[4] = Stability of TCEP (aqueous acidic media, air oxidation, temperature); format: physicochemical
[5] = test system: hair, especially the cuticle; test: Damage to hair (cuticle); design: species or system human; settings: vs sulfhydryl reducing agents in alkaline pH
[6] = test system: soluble proteins, such as antibodies; settings: in the presence of 6M guanidine or 8M urea; cited from earlier work

| Compound | protein cystine bonds in hair disrupted (extent of reduction) (disulfide bonds in hair [1]) | cuticle damage [2] | reactivity toward other functional groups found in hair (disulfide bonds in hair [3]) | reduction of some of the most stable disulfide bonds in hair (disulfide bonds in hair [3]) | effectiveness in reducing disulfide bonds vs dithiothreitol, mercaptoethanol, or thioglycollic acid (disulfide bonds in hair [3]; acidic pH) | period over which the reducing reaction occurs (disulfide bonds in hair [3]; pH 2.0-5.6, TCEP 5-10% w/v, ambient or slightly elevated temperature) | toxicity to human hosts / safety profile (human hosts) | solubility (Water solubility of TCEP) | resistance to air oxidation ([4]; air) | stability in aqueous acidic media ([4]; aqueous acidic media) | stability when exposed to fluctuations in temperature ([4]; fluctuations in temperature) | damage to hair, especially the cuticle [5] | function as reducing agent on soluble proteins [6] |
| --- | --- | --- | --- | --- | --- | --- | --- | --- | --- | --- | --- | --- | --- |
| O=C(O)CS [thioglycollate, thioglycollic acid] | 65-70% | severe cuticle damage | – | – | – | – | – | – | – | – | – | – | – |
| Cl.O=C(O)CCP(CCC(=O)O)CCC(=O)O [TCEP, Tris-(2-carboxy-ethyl) phosphine hydrochloride] | – | – | essentially non-reactive | Selective and complete reduction | more effective than traditional sulfhydryl reducing agents | about 15 minutes | not toxic to human hosts | ~310 mg/mL | substantially resistant to air oxidation | stable in aqueous acidic media | very stable | lower instance of damaged hair | function well |
